This note sets out measurements from ChEMBL document CHEMBL2385007, “Synthesis and biological evaluation of prodrugs of 2-fluoro-2-deoxyribose-1-phosphate and 2,2-difluoro-2-deoxyribose-1-phosphate” (Bioorg Med Chem Lett, 2013).

As a reminder, the CC50 is the concentration giving 50% cytotoxicity. For orientation: EC50 means the concentration needed to bring the measured effect to its halfway point. A word on the IC50: it is the midpoint of a concentration-inhibition curve. Read a low IC50 as greater potency in that assay.

A value given as a limit tells only on which side of the number the result lay.

Series [1] in a line: Half life of the compound in fluka 82564 buffer at pH 2 by HPLC analysis. In kind it is physicochemical.
Series [2] is described as follows: Half life of the compound in fluka 82567 buffer at pH 7 by HPLC analysis. In kind it is physicochemical.
The nature of series [3]: Cytotoxicity against cat CRFK cells. In kind it is cell-based, Felis catus.
Series [4] is described as follows: Stability of the compound in fluka 82571 buffer at pH 5 assessed as compound degradation after 2 days by HPLC analysis. As to conditions: pH 5, 48 h. In kind it is physicochemical.
Series [5] concerns Human alphaherpesvirus 3. In words: Antiviral activity against Varicellla-zoster virus 07-1 infected in HEL cells assessed as inhibition of virus-induced cytopathicity. It is filed as functional, organism-based. Conditions: Human alphaherpesvirus 3, 07-1, HEL. For orientation: Damage to the host cells serves as the signal in cytopathic effect assays.
The subject of series [6] is Human alphaherpesvirus 2. Briefly: Antiviral activity against HSV-2 G infected in HEL cells assessed as inhibition of virus-induced cytopathicity. In kind it is functional, organism-based. As to conditions: Human alphaherpesvirus 2, strain G.
Series [7] has as its system Human betaherpesvirus 5. Briefly: Antiviral activity against Cytomegalovirus AD-169 infected in HEL cells assessed as inhibition of virus-induced cytopathicity. As to conditions: Human betaherpesvirus 5, AD169, HEL. It is filed as functional, organism-based.
In series [8] the test system is Human immunodeficiency virus 1. Briefly: Antiviral activity against HIV-1 3B infected in human CEM cells assessed as HIV-induced host giant cell formation after 4 days by microscopic analysis. Conditions: Human immunodeficiency virus 1, 3B, CCRF-CEM, 96 h. It is filed as functional, organism-based.
Series [9] can be described thus: Cytotoxicity against human HEL cells. It is filed as cell-based.
In series [10] the test system is Vesicular stomatitis virus. Briefly: Antiviral activity against Vesicular somatitis virus infected in HEL cells assessed as inhibition of virus-induced cytopathicity. It is filed as functional, organism-based.
Series [11] deals with L1210. Briefly: Cytotoxicity against mouse L1210 cells. It is filed as cell-based.
The test system of series [12] is Human alphaherpesvirus 1. In words: Antiviral activity against HSV-1 KOS infected in HEL cells assessed as inhibition of virus-induced cytopathicity. It is filed as functional, organism-based. Conditions: Human alphaherpesvirus 1, KOS.
A short description of series [13]: Stability of the compound in fluka 82567 buffer at pH 7 assessed as compound degradation after 2 days by HPLC analysis. In kind it is physicochemical. As to conditions: pH 7, 48 h.
Series [14] concerns Human alphaherpesvirus 3. Briefly: Antiviral activity against Varicellla-zoster virus Oka infected in HEL cells assessed as inhibition of virus-induced cytopathicity. In kind it is functional, cell-based. Conditions: Human alphaherpesvirus 3, strain Oka vaccine.
Series [15] relates to Human immunodeficiency virus 2. In words: Antiviral activity against HIV-2 ROD infected in human CEM cells assessed as HIV-induced host giant cell formation after 4 days by microscopic analysis. In kind it is functional, organism-based. Conditions: Human immunodeficiency virus 2, ISOLATE ROD, CCRF-CEM, 96 h.
The test system of series [16] is Felid alphaherpesvirus 1. Briefly: Antiviral activity against Feline herpesvirus in cat CrFK cells assessed as plaque formation. It is filed as functional, organism-based. As to conditions: Felid alphaherpesvirus 1, CRFK.
Series [17] deals with Cytomegalovirus. In words: Antiviral activity against Cytomegalovirus Davis infected in HEL cells assessed as inhibition of virus-induced cytopathicity. In kind it is functional, organism-based. As to conditions: Human betaherpesvirus 5, Davis.
Series [18] concerns Feline coronavirus. In words: Antiviral activity against Feline coronavirus in cat CrFK cells assessed as plaque formation. In kind it is functional, organism-based. As to conditions: Alphacoronavirus 1, CRFK.
Series [19] deals with Vaccinia virus. Briefly: Antiviral activity against Vaccinia virus Lederle infected in HEL cells assessed as inhibition of virus-induced cytopathicity. It is filed as functional, organism-based. Conditions: Orthopoxvirus vaccinia.
Series [20] deals with Human alphaherpesvirus 1. In words: Antiviral activity against thymidine kinase-deficient ACV-resistant HSV-1 KOS infected in HEL cells assessed as inhibition of virus-induced cytopathicity. As to conditions: Human alphaherpesvirus 1, KOS. In kind it is functional, organism-based.
Series [21] can be described thus: Stability of the compound at -20 degC assessed as compound degradation after 4 months by HPLC analysis. It is filed as physicochemical. Conditions: 2922 h.
In series [22] the test system is CCRF-CEM. In words: Cytotoxicity against human CEM cells. In kind it is cell-based.

Take `C[C@H](NP(=O)(Oc1ccccc1)O[C@H]1O[C@H](CO)[C@@H](O)[C@@H]1F)C(=O)OC1CCCCC1` (stereo not given in full): the t1/2 in series [1] was found to be 1.07 h; in [2] it was 2 h.

Consider `C[C@H](NP(=O)(Oc1ccccc1)O[C@H]1O[C@H](CO)[C@@H](O)C1(F)F)C(=O)OC1CCCCC1` (mixture of isomers), for which the CC50 in series [3] is > 100 µM. Also, the Stability entry in [4], in [13] and in [21] was “Stable” in each case. Also, the EC50 was > 20 µM in [5]; > 20 µM in [6]; > 20 µM in [7]; > 250 µM in series [8]; > 20 µM in [10]; > 20 µM in series [12]. For the same compound, the EC50 was > 20 µM in [14]; > 250 µM in series [15]; > 20 µM in [16]; > 20 µM in series [17]; > 20 µM in [18]; > 20 µM in series [19]. Moreover, in [20], the EC50 is > 20 µM. In [9], the MCC is ≥ 100 µM. Moreover, the IC50 in series [11] and in series [22] was > 30 µM each time.

For `C[C@H](NP(=O)(Oc1ccccc1)O[C@@H]1O[C@H](CO)[C@@H](O)C1(F)F)C(=O)OCC(C)(C)C` (mixture of isomers), in series [3], the CC50 was > 100 µM. The EC50 in [5] was > 20 µM; in series [6] it was > 20 µM; in series [7] it was > 20 µM; in [8], > 250 µM; in [10], > 20 µM; in series [12], > 20 µM. Also, the EC50 in [14] was > 20 µM; in series [15], > 250 µM; in series [16], > 20 µM; in [17], > 20 µM; in series [18], > 20 µM; in series [19] it was > 20 µM. Moreover, the EC50 in series [20] was > 20 µM. For the same compound, the MCC in series [9] was ≥ 100 µM. The IC50 in series [11] and in series [22] was > 30 µM each time.

Consider `COC(=O)[C@H](C)NP(=O)(Oc1ccccc1)O[C@@H]1O[C@H](CO)[C@@H](O)C1(F)F` (mixture of isomers), for which, in series [3], the CC50 was > 100 µM. Besides, the EC50 in series [5] was > 20 µM; in series [6], > 20 µM; in series [7], > 20 µM; in series [8] it was > 250 µM; in series [10], > 20 µM; in series [12] it was > 20 µM. For the same compound, the EC50 in series [14] was > 20 µM; in series [15], > 250 µM; in series [16] it was > 20 µM; in series [17] it was > 20 µM; in series [18], > 20 µM; in [19], > 20 µM. Also, the EC50 in [20] is > 20 µM. In addition, the MCC in [9] was ≥ 100 µM. For the same compound, the IC50 in series [11] and in series [22] was > 30 µM throughout.

As for `COC(=O)[C@@H](NP(=O)(Oc1ccccc1)O[C@@H]1O[C@H](CO)[C@@H](O)C1(F)F)C(C)C` (mixture of isomers), in series [3], the CC50 is > 100 µM. Besides, the EC50 in series [5] was > 20 µM; in series [6], > 20 µM; in [7], > 20 µM; in series [8] it was > 250 µM; in [10] it was > 20 µM; in [12], > 20 µM. The EC50 in series [14] was > 20 µM; in series [15] it was > 250 µM; in series [16], > 20 µM; in [17], > 20 µM; in series [18] it was > 20 µM; in series [19], > 20 µM. Further, the EC50 in series [20] is > 20 µM. Besides, the MCC in [9] was ≥ 100 µM. Further, the IC50 in [11] and in series [22] was > 30 µM throughout.

Regarding `COC(=O)[C@@H](NP(=O)(Oc1cccc2ccccc12)O[C@@H]1O[C@H](CO)[C@@H](O)C1(F)F)C(C)C` (mixture of isomers), the CC50 in series [3] was > 100 µM. In addition, the EC50 was > 20 µM in [5]; > 20 µM in series [6]; > 20 µM in series [7]; > 50 µM in series [8]; > 20 µM in series [10]; > 20 µM in series [12]. The EC50 was > 20 µM in series [14]; > 50 µM in series [15]; > 20 µM in series [16]; > 20 µM in [17]; > 20 µM in [18]; > 20 µM in series [19]. Moreover, in [20], the EC50 is > 20 µM. Moreover, the MCC in series [9] is ≥ 100 µM. In addition, the IC50 in series [11] and in series [22] was > 30 µM throughout.
